Measurements from patent US7960549B2, “Solid forms of a chemokine receptor antagonist and methods of use thereof” (priority 2004, dated 2011).
Counter-ions that a name gives are not always drawn.

Legend:
Assay type in all cases: physicochemical
[1] = Water sorption/desorption cycling (dynamic vapor sorption, DVS) at 25° C., with XRPD before and after; conditions: for XRPD before and after water sorption/desorption cycling: four consecutive cycles, start at 40%, cycled between 100% and 0% relative humidity, mixed samples; for global / net weight loss after all 4 water sorption/desorption cycles: four cycles between 100% and 0% relative humidity
Procedure: Water sorption measurements are performed on a DVS-1 automated gravimetric vapor sorption analyser (Surface Measurement Systems Ltd., London, UK). The DVS-1 measures the uptake and loss of vapor gravimetrically using a Cahn D200 recording ultra-microbalance with a mass resolution of ±0.1 μg. The relative humidity around the sample is controlled by mixing saturated and dry carrier gas streams using mass flow controllers. The temperature is maintained within ±0.1° C. by enclosing the entire system in a temperature-controlled incubator. A sample size between 15 and 20 mg is used. In general, the error in % (w/w) identified in a tested sample is ±0.1% (w/w).
Two protocols are utilized to operate the DVS. In one protocol, a sample is dried at 0% relative humidity (RH) to remove any surface water present and establish a dry, baseline mass. Next, the sample is exposed to the following relative humidity profile: 0%, 10%, 20%, 30%, 40%, 50%, 60%, 70%, 80%, 90%, 80%, 70%, 60%, 50%, 40%, 30%, 20%, 10%, 0%. In some instances, this profile is repeated, yielding 4 sets of data going up and down in RH. In another protocol, the sample is first equilibrated at 40% RH, then it was exposed to the following relative humidity profile: 40%, 50%, 60%, 70%, 80%, 90%, 100%, 90%, 80%, 70%, 60%, 50% 40% 30%, 20% 10%, 0%, 10%, 20%, 30%, 40%. […] If equilibrium state is not reached, the change in relative humidity took place automatically after 360 or 600 minutes. From the complete moisture sorption and desorption profile, an isotherm is calculated using the DVS Advanced Analysis Suite v3.6. All experiments were performed at 25° C.

[2] = Controlled temperature (isothermal) X-ray powder diffraction: thermal stability of the crystalline form; conditions: dry nitrogen; for form conversion as the temperature is raised (isothermal XRPD): ambient to 210° C.; for loss of stability (lines unique to the form disappear), isothermal XRPD: sample containing Forms E, F, and G, steps of 10° C.
Procedure: X-ray powder diffraction (XRPD) is performed on various samples of the Citrate Salt using one of three instruments. XRPD measurements with Instrument 1 utilize a Siemens-Bruker D5000 Matic powder diffractometer with a Bragg-Brentano (vertical θ-2θ configuration) parafocusing geometry. X-rays are produced from a sealed cobalt anode running at 40 kV and 30 mA. Two lines are typically emitted: CoKα1 (λ=1.7890 Å) and CoKα2 (λ=1.7929 Å). An iron β-filter limits the CoKβ (λ=1.6208 Å) radiation to about 1% of the diffracted beam at the detector. The primary beam passes through a parallel plate collimator (0.2 mm Soller slits), then through a divergence slit (0.2 mm). Diffracted X-rays are detected with a Braun 50 M multichannel linear detector having a 10°-wide detection window in angle 2θ. Scans are performed from 1.5° to 50.0° in 2θ, the scan time being 10 to 40 seconds per degree in 2θ. The error in the 2θ locations are typically within ±0.10 degrees.
In Instrument 3, XRPD measurements are performed at different temperatures to elucidate the evolution of crystal structure with temperature. Tests are carried out with a Siemens-Bruker D5000 diffractometer equipped with the Bragg Brentano parafocusing (θ-θ) geometry and an Anton-Paar TTK temperature chamber. Measurements utilize dry nitrogen or nitrogen streams having a particular humidity. The instrument specifications are substantially similar to the Siemens-Bruker D5000 Matic instrument described above (Instrument 1). Temperature is allowed to rise at a rate of 0.05° C./sec. Scans are recorded under the following conditions: a 1.5 to 50.0 degree scan in angle 2θ, 10 to 20 seconds counting time per degree in 2θ. Data are acquired in isotherm mode when the requested temperature is reached.

[3] = Differential scanning calorimetry (DSC)
Procedure: Differential scanning calorimetry (DSC) analyses are performed using a T.A Instruments Q1000 thermal analyser. Analyses are carried out using nitrogen purge gas flowing at an average rate of 50 ml/min. A mechanical compressor cools the system, and equilibrates the instruments being used at ambient temperature between analyses. […] Energy calibration is performed with a certified indium calibrator (melting enthalpy of 28.45 J/g), applying a heating rate of 5° C./min. The temperatures identified from DSC scans of a particular sample are accurate to within ±3° C. […] Modulated temperature differential scanning calorimetry (MTDSC) is also used since deconvolution of the total heat flow into reversing and non-reversing heat flows allows the transitions to be easily identified. The samples were submitted to the same experimental temperature program: after the equilibration of the sample at −5° C., the samples were heated through a modulated program from −5° C. to 210° C. at a rate of 1° C./min. […] Experiments are performed using crimped aluminium sample pans or open pans in some cases. The quantity of product analysed is typically between 2 and 13 mg.

[4] = Thermal gravimetric analysis (TGA)
Procedure: Measurements utilizing thermal gravimetric analysis (TGA) are carried out on a T.A. instruments TGAQ500 analyzer. Mass calibration is performed with 10 and 100 mg certified masses. Temperature calibration is performed with Alumel® and nickel standards (Curie points of respectively 154° C. and 354° C.). Samples are exposed to a constant nitrogen stream of 60 ml/min, and temperature ranges from room temperature to 350° C. at a 5° C./min rate. The quantity of product tested is between 2 and 13 mg. The sample is deposited in an open aluminum sample pan, which is itself placed in a platinum pan. The temperatures identified from TGA scans of a particular sample are accurate to within ±3° C. Simultaneous TGA and DSC measurements are carried out using a […] thermal analysis system produced by the […] corporation. A liquid nitrogen cooling system makes it possible to work at temperatures below 20° C. The emitted gases, upon sample heating, are carried by a transfer capillary tube to a Pfeiffer mass spectrometer, the capillary tube heated to 150° C. The mass spectrometer can analyze molecular fragments at <<m/e>> ratios between 1 and 200 uma. A sample with a mass between 1 and 27 mg is contained in an open concave aluminum sample pan (75 μL capacity) exposed to a nitrogen stream. The sample is heated at a rate of 1 or 5° C./min.

[5] = mixture of Forms A and D, 0.3° C./min
[6] = sample containing Forms A and D, 5° C./min
[7] = 25° C., listed as Forms E, F, and G
[8] = transition 3411 (first endothermic transition, conversion of Form E to Form B), heating rate 5° C./min
[9] = transition 3412 (second endothermic transition, conversion of Form F to Form B), heating rate 5° C./min
[10] = transition 3413 (third endothermic transition, conversion of Form G to Form B), heating rate 5° C./min
[11] = transition 3414 (fourth endothermic transition, decomposition/melting of crystalline Form B), heating rate 5° C./min
[12] = weight transition 2811 (conversion away from Form E), 5° C./min
[13] = weight transition 2812 (conversion away from Form F), 5° C./min
[14] = weight transition 2813 (conversion away from Form G), 5° C./min
[15] = weight transition 2814 (decomposition/melting of crystalline Form B, loss of citrate), 5° C./min
[16] = heating rate 5° C./min, A, B, H: melting/decomposition, E: loss of water and conversion to Form H, ±3° C.
[17] = heating rate 5° C./min, sample of the single form (Form H formed from Form E sample), ±3° C.
[18] = mixture of Forms A and D, 0.3° C./min, Form D: conversion to Form A, Form A: melting/decomposition

## CC(C)(O)c1ccc2c(c1)/C(=C/CCN1CC[C@](O)(c3ccc(Cl)cc3)C(C)(C)C1)c1cccnc1CO2 [Form G, citrate salt of (S)-4-(4-Chloro-phenyl)-1-{3-[7-(1-hydroxy-1-methyl-ethyl)-11H-10-oxa-1-aza-dibenzo[a,d]cyclohepten-5-ylidene]-propyl}-3,3-dimethyl-piperidin-4-ol]
[1]; 25° C.
  XRPD before and after water sorption/desorption cycling: have dissipated
[2]
  form conversion as the temperature is raised (isothermal XRPD): converts to Form B
  loss of stability (lines unique to the form disappear), isothermal XRPD: ≥ 130 °C

## CC(C)(O)c1ccc2c(c1)/C(=C/CCN1CC[C@](O)(c3ccc(Cl)cc3)C(C)(C)C1)c1cccnc1CO2 [Forms A and D]
[1]; 25° C.
  global / net weight loss after all 4 water sorption/desorption cycles: about 14.3 % (w/w)
[3]; [5]
  DSC endothermic transition 1912 (release of THF), Tmax: 77 °C
  DSC endothermic transition 1912 (release of THF), beginning temperature: about 60 °C
  DSC endothermic transition 1912 (release of THF), enthalpy: 18.1 J/g
[4]; [6]
  TGA second weight loss transition 1812, interpolated beginning temperature: 164 °C
  TGA second weight loss transition 1812, temperature of maximum weight loss rate: 180 °C

## CC(C)(O)c1ccc2c(c1)/C(=C/CCN1CC[C@](O)(c3ccc(Cl)cc3)C(C)(C)C1)c1cccnc1CO2 [Form E, F, and G]
[1]; [7]
  global / net weight loss after all 4 water sorption/desorption cycles: about 7.5 % (w/w)
  weight change / water uptake between 10% and 90% relative humidity: 2.10 % (w/w)
  weight gain / water uptake as relative humidity is increased from 0% to 10%: 3.76 % (w/w)
[3]; [8]
  Integrated Enthalpy Change: 20.3 J/g
  Interpolated Starting T: 78 °C
  Tmax: 99 °C
[3]; [9]
  Integrated Enthalpy Change: 5.8 J/g
  Interpolated Starting T: 119 °C
  Tmax: 124 °C
[3]; [10]
  Integrated Enthalpy Change: 2.4 J/g
  Interpolated Starting T: 131 °C
  Tmax: 136 °C
[3]; [11]
  Interpolated Starting T: 165 °C
  Tmax: 181 °C
[4]; [12]
  Interpolated Starting T (° C.): 42 °C
  T (° C.) corresponding to Max. Rate of Weight Change: 50 °C
  Weight Loss % (w/w): 1.9 % (w/w)
[4]; [13]
  Interpolated Starting T (° C.): 110 °C
  T (° C.) corresponding to Max. Rate of Weight Change: 123 °C
  Weight Loss % (w/w): 3.6 % (w/w)
[4]; [14]
  Interpolated Starting T (° C.): 131 °C
  T (° C.) corresponding to Max. Rate of Weight Change: 138 °C
  Weight Loss % (w/w): 1.6 % (w/w)
[4]; [15]
  Interpolated Starting T (° C.): 166 °C
  T (° C.) corresponding to Max. Rate of Weight Change: 187 °C
  Weight Loss % (w/w): 22.6 % (w/w)

## CC(C)(O)c1ccc2c(c1)/C(=C/CCN1CC[C@](O)(c3ccc(Cl)cc3)C(C)(C)C1)c1cccnc1CO2 [Form H, citrate salt of (S)-4-(4-Chloro-phenyl)-1-{3-[7-(1-hydroxy-1-methyl-ethyl)-11H-10-oxa-1-aza-dibenzo[a,d]cyclohepten-5-ylidene]-propyl}-3,3-dimethyl-piperidin-4-ol]
[1]; ambient temperatures
  behaviour when exposed to 10% relative humidity or higher: reversibly transforms into form E
[3]; [16]
  DSC endothermic transition, Tmax: 141 °C
  DSC endothermic transition, interpolated beginning temperature: 131 °C
[4]; heating rate 5° C./min, sample of the single form (Form H formed from Form E sample)
  TGA weight loss of the transition: 20.10 % (w/w)
[4]; [17]
  TGA weight loss transition, interpolated beginning temperature: 127 °C
  TGA weight loss transition, temperature of maximum rate of weight loss: 142 °C

## CC(C)(O)c1ccc2c(c1)/C(=C/CCN1CC[C@](O)(c3ccc(Cl)cc3)C(C)(C)C1)c1cccnc1CO2 [Form F, citrate salt of (S)-4-(4-Chloro-phenyl)-1-{3-[7-(1-hydroxy-1-methyl-ethyl)-11H-10-oxa-1-aza-dibenzo[a,d]cyclohepten-5-ylidene]-propyl}-3,3-dimethyl-piperidin-4-ol]
[1]; 25° C.
  XRPD before and after water sorption/desorption cycling: disappears
[2]
  form conversion as the temperature is raised (isothermal XRPD): converts to Form B
  loss of stability (lines unique to the form disappear), isothermal XRPD: greater than 110 °C

## CC(C)(O)c1ccc2c(c1)/C(=C/CCN1CC[C@](O)(c3ccc(Cl)cc3)C(C)(C)C1)c1cccnc1CO2 [Form D, citrate salt of (S)-4-(4-Chloro-phenyl)-1-{3-[7-(1-hydroxy-1-methyl-ethyl)-11H-10-oxa-1-aza-dibenzo[a,d]cyclohepten-5-ylidene]-propyl}-3,3-dimethyl-piperidin-4-ol]
[1]; 25° C.
  XRPD before and after water sorption/desorption cycling: disappeared after the cycling; only the signature of Form A remains
[3]; [18]
  DSC endothermic transition, Tmax: 52 °C
  DSC endothermic transition, interpolated beginning temperature: about 47 °C
[3]; mixture of Forms A and D, 0.3° C./min, conversion of Form D to Form A
  DSC endothermic transition, integrated enthalpy: 3.7 J/g
[2]; sample containing Forms A and D
  transition to Form A observed by temperature controlled XRPD: below 60 °C
